Toxic doses and inconclusive results are not listed.
Tested on: CD2F1 mice, L1210 leukemia ip, survival T/C
Experiment: NCI In Vivo Anticancer Drug Screen. Data for tumor model L1210 Leukemia (intraperitoneal) in CD2F1 (CDF1) mice
Details: higher = longer survival
In short: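 Activity against a transplanted murine tumor was judged by comparing the compound group with a vehicle group. The outcome in the treated animals was divided by that in the controls.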

[1] = endpoint: mean survival time, dose: 25.0 mg/kg/injection, schedule: Q01DX009 (ip), vehicle: saline with Tween-80
[2] = endpoint: mean survival time, dose: 50.0 mg/kg/injection, schedule: Q01DX009 (ip), vehicle: saline with Tween-80
[3] = endpoint: mean survival time, dose: 100.0 mg/kg/injection, schedule: Q01DX009 (ip), vehicle: saline with Tween-80
[4] = endpoint: mean survival time, dose: 100.0 mg/kg/injection, schedule: Q04DX003 (ip), vehicle: saline with Tween-80
[5] = endpoint: mean survival time, dose: 200.0 mg/kg/injection, schedule: Q01DX009 (ip), vehicle: saline with Tween-80
[6] = endpoint: mean survival time, dose: 200.0 mg/kg/injection, schedule: Q04DX003 (ip), vehicle: saline with Tween-80
[7] = endpoint: mean survival time, dose: 400.0 mg/kg/injection, schedule: Q01DX009 (ip), vehicle: saline with Tween-80
[8] = endpoint: mean survival time, dose: 400.0 mg/kg/injection, schedule: Q04DX003 (ip), vehicle: saline with Tween-80
[9] = endpoint: mean survival time, dose: 100.0 mg/kg/injection, schedule: Q01DX001 (ip), vehicle: saline with Tween-80
[10] = endpoint: mean survival time, dose: 200.0 mg/kg/injection, schedule: Q01DX001 (ip), vehicle: saline with Tween-80
[11] = endpoint: mean survival time, dose: 400.0 mg/kg/injection, schedule: Q01DX001 (ip), vehicle: saline with Tween-80
[12] = endpoint: mean survival time, dose: 100.0 mg/kg/injection, schedule: Q01DX001 (ip), vehicle: saline
[13] = endpoint: mean survival time, dose: 200.0 mg/kg/injection, schedule: Q01DX001 (ip), vehicle: saline
[14] = endpoint: mean survival time, dose: 400.0 mg/kg/injection, schedule: Q01DX001 (ip), vehicle: saline

`CC1=CC(=O)C2(C)C(C)=C(C)C12C` (configuration not stated) was tested, and the T/C [1] was 104 % of control, the T/C [2] was 100 % of control and the T/C [3] was 102 % of control.
With `CC(=O)Nc1ncc(C)s1` the T/C [3] was 102 % of control, the T/C [4] was 97 % of control and the T/C [5] was 104 % of control. For the same compound, the T/C [6] was 101 % of control, the T/C [7] was 95 % of control and the T/C [8] was 101 % of control.
With `CCN(CC)CCNC(=O)C(O)(c1ccccc1)c1ccccc1` the T/C (endpoint: mean survival time, dose: 50.0 mg/kg/injection, schedule: Q01DX009 (ip), vehicle: saline) was 98 % of control and the T/C (endpoint: mean survival time, dose: 100.0 mg/kg/injection, schedule: Q01DX009 (ip), vehicle: saline) was 103 % of control.
In the case of `CCCCCCCCN(C)Cc1cc(C(C)(C)C)cc(-c2ccccc2)c1O`, the T/C [3] is reported as 96 % of control, the T/C [5] is reported as 96 % of control and the T/C [7] is reported as 96 % of control.
In the case of `COC(=O)c1ncn(C2OC(COC(=O)c3ccccc3)C(OC(=O)c3ccccc3)C2OC(=O)c2ccccc2)c1C(=O)OC` (configuration not stated), the T/C (endpoint: median survival time, dose: 8.75 mg/kg/injection, schedule: Q01DX005 (ip), vehicle: distilled water + Tween-80) is reported as 93 % of control, the T/C (endpoint: median survival time, dose: 12.5 mg/kg/injection, schedule: Q01DX005 (ip), vehicle: distilled water + Tween-80) is reported as 97 % of control and the T/C (endpoint: median survival time, dose: 25.0 mg/kg/injection, schedule: Q01DX005 (ip), vehicle: distilled water + Tween-80) is reported as 90 % of control. The T/C (endpoint: median survival time, dose: 35.0 mg/kg/injection, schedule: Q01DX005 (ip), vehicle: distilled water + Tween-80) was 103 % of control, the T/C (endpoint: median survival time, dose: 50.0 mg/kg/injection, schedule: Q01DX005 (ip), vehicle: distilled water + Tween-80) was 88 % of control and the T/C (endpoint: median survival time, dose: 100.0 mg/kg/injection, schedule: Q01DX005 (ip), vehicle: distilled water + Tween-80) was 92 % of control. The T/C (endpoint: median survival time, dose: 140.0 mg/kg/injection, schedule: Q01DX005 (ip), vehicle: distilled water + Tween-80) was 89 % of control and the T/C (endpoint: median survival time, dose: 200.0 mg/kg/injection, schedule: Q01DX005 (ip), vehicle: distilled water + Tween-80) was 97 % of control.
In the case of `COC(=O)C1C2CC(OS(=O)(=O)c3ccc(C)cc3)C(C2)C1C(=O)OC` (configuration not stated), the T/C [9] is reported as 93 % of control, the T/C [3] is reported as 98 % of control and the T/C [10] is reported as 95 % of control. The T/C [5] was 91 % of control, the T/C [11] was 92 % of control and the T/C [7] was 95 % of control.
For `COC1(OC)C(Cl)=C(Cl)C2C1C1(Cl)C(Cl)=C(Cl)C2(Cl)C1(OC)OC` (configuration not stated), the T/C [12] was 106 % of control, the T/C (endpoint: mean survival time, dose: 100.0 mg/kg/injection, schedule: Q04DX003 (ip), vehicle: saline) was 105 % of control and the T/C [13] was 106 % of control. The T/C (endpoint: mean survival time, dose: 200.0 mg/kg/injection, schedule: Q04DX003 (ip), vehicle: saline) was 103 % of control, the T/C [14] was 102 % of control and the T/C (endpoint: mean survival time, dose: 400.0 mg/kg/injection, schedule: Q04DX003 (ip), vehicle: saline) was 100 % of control.
`COc1ccc(CSc2nn(C3OC(COC(=O)c4ccccc4)C(OC(=O)c4ccccc4)C3OC(=O)c3ccccc3)c(=O)[nH]c2=S)cc1` (configuration not stated) was tested, and the T/C (endpoint: mean survival time, dose: 12.5 mg/kg/injection, schedule: Q01DX005 (ip), vehicle: distilled water + Tween-80) was 104 % of control, the T/C (endpoint: mean survival time, dose: 25.0 mg/kg/injection, schedule: Q01DX005 (ip), vehicle: distilled water + Tween-80) was 101 % of control and the T/C (endpoint: mean survival time, dose: 50.0 mg/kg/injection, schedule: Q01DX005 (ip), vehicle: distilled water + Tween-80) was 93 % of control. For the same compound, the T/C (endpoint: mean survival time, dose: 100.0 mg/kg/injection, schedule: Q01DX005 (ip), vehicle: distilled water + Tween-80) was 93 % of control and the T/C (endpoint: mean survival time, dose: 200.0 mg/kg/injection, schedule: Q01DX005 (ip), vehicle: distilled water + Tween-80) was 90 % of control.
With `O=C1c2ccccc2C(=O)N1CC(O)COc1ccccc1` (configuration not stated) the T/C [4] was 94 % of control, the T/C [6] was 101 % of control and the T/C [8] was 103 % of control.
`C[n+]1c2ccccc2c(Nc2ccc(NS(=O)(=O)CCCCN=C(N)N)cc2)c2ccc(N)cc21` was tested, and the T/C (endpoint: mean survival time, dose: 6.25 mg/kg/injection, schedule: Q01DX009 (ip), vehicle: water) was 314 % of control.
`Cc1ccc(C2=NNc3n[nH]c(=S)n3N2)cc1` was tested, and the T/C [3] was 101 % of control, the T/C [4] was 95 % of control and the T/C [5] was 96 % of control. The T/C [6] was 93 % of control and the T/C [8] was 91 % of control.
With `O=C(O)C[As](=O)(O)O` the T/C (endpoint: mean survival time, dose: 15.0 mg/kg/injection, schedule: Q01DX009 (ip), vehicle: saline) was 100 % of control, the T/C (endpoint: mean survival time, dose: 30.0 mg/kg/injection, schedule: Q01DX009 (ip), vehicle: saline) was 108 % of control and the T/C (endpoint: mean survival time, dose: 60.0 mg/kg/injection, schedule: Q01DX009 (ip), vehicle: saline) was 91 % of control.
With `CCCCCCCCCCC(CCCCCCCCCC)C1CC(C)CCC1C` (configuration not stated) the T/C [12] was 94 % of control, the T/C [13] was 97 % of control and the T/C [14] was 97 % of control.
With `CCCCC1C/C=C/C=C/C=C/C=C/C(OC2OC(C)C(O)C(N)C2O)CC2OC(O)(CC(O)CC3OC3/C=C/C(=O)O1)CC(O)C2C(=O)O` (configuration not stated) the T/C (endpoint: mean survival time, dose: 3.5 mg/kg/injection, schedule: Q01DX009 (ip), vehicle: saline sonified) was 104 % of control, the T/C (endpoint: mean survival time, dose: 3.5 mg/kg/injection, schedule: Q04DX003 (ip), vehicle: saline sonified) was 91 % of control and the T/C (endpoint: mean survival time, dose: 7.0 mg/kg/injection, schedule: Q01DX009 (ip), vehicle: saline sonified) was 101 % of control. The T/C (endpoint: mean survival time, dose: 7.0 mg/kg/injection, schedule: Q04DX003 (ip), vehicle: saline sonified) was 93 % of control, the T/C (endpoint: mean survival time, dose: 14.0 mg/kg/injection, schedule: Q01DX009 (ip), vehicle: saline sonified) was 87 % of control and the T/C (endpoint: mean survival time, dose: 14.0 mg/kg/injection, schedule: Q04DX003 (ip), vehicle: saline sonified) was 91 % of control.
`CC(NC(=O)OCc1ccccc1)C(=O)NCCC(=O)OCc1ccccc1` (configuration not stated) was tested, and the T/C [3] was 93 % of control, the T/C [5] was 95 % of control and the T/C [7] was 90 % of control.
In the case of `COC1CC(O)C2OC(c3ccccc3)OCC2O1` (configuration not stated), the T/C [4] is reported as 104 % of control, the T/C [6] is reported as 93 % of control and the T/C [8] is reported as 107 % of control.
For `CC(=O)OCC(OC(C)=O)C(OC(C)=O)C(/C=N\Nc1ccccc1)=N/Nc1ccccc1` (configuration not stated), the T/C (endpoint: mean survival time, dose: 37.5 mg/kg/injection, schedule: Q01DX001 (ip), vehicle: saline with Tween-80) was 92 % of control, the T/C (endpoint: mean survival time, dose: 75.0 mg/kg/injection, schedule: Q01DX001 (ip), vehicle: saline with Tween-80) was 96 % of control and the T/C (endpoint: mean survival time, dose: 150.0 mg/kg/injection, schedule: Q01DX001 (ip), vehicle: saline with Tween-80) was 91 % of control.
With `O=C(O)CCC(CCC(=O)O)(C(=O)O)C(=O)O` the T/C (endpoint: median survival time, dose: 75.0 mg/kg/injection, schedule: Q01DX009 (ip), vehicle: saline) was 98 % of control, the T/C (endpoint: median survival time, dose: 150.0 mg/kg/injection, schedule: Q01DX009 (ip), vehicle: saline) was 96 % of control and the T/C (endpoint: median survival time, dose: 300.0 mg/kg/injection, schedule: Q01DX009 (ip), vehicle: saline) was 96 % of control.
For `CCCCCCCCCCCC(=O)OCCN(C=O)C[n+]1ccccc1`, the T/C (endpoint: mean survival time, dose: 100.0 mg/kg/injection, schedule: Q04DX002 (ip), vehicle: saline) was 101 % of control.
`CCOc1ccc(N=Nc2sc(N)nc2-c2cccc([N+](=O)[O-])c2)cc1` was tested, and the T/C [9] was 89 % of control, the T/C [10] was 96 % of control and the T/C [11] was 96 % of control.
`c1cc2c3c(c1)nc(CCCc1nc4cccc5c4n1CCC5)n3CCC2` was tested, and the T/C [1] was 103 % of control, the T/C [2] was 96 % of control and the T/C [3] was 94 % of control.
`N#Cc1ccc(OCc2nc(N)nc(N)c2-c2ccc(Cl)c(Cl)c2)cc1` was tested, and the T/C [2] was 90 % of control, the T/C [3] was 102 % of control and the T/C [5] was 110 % of control.
With `C=Cn1cnc2c(N)ncnc21` (tested in a mixture with another compound) the T/C (endpoint: mean survival time, dose: 12.5 mg/kg/injection, schedule: Q01DX005 (ip), vehicle: water) was 101 % of control, the T/C (endpoint: mean survival time, dose: 25.0 mg/kg/injection, schedule: Q01DX005 (ip), vehicle: water) was 104 % of control and the T/C (endpoint: mean survival time, dose: 50.0 mg/kg/injection, schedule: Q01DX005 (ip), vehicle: water) was 101 % of control. For the same compound, the T/C (endpoint: mean survival time, dose: 100.0 mg/kg/injection, schedule: Q01DX005 (ip), vehicle: water) was 101 % of control and the T/C (endpoint: mean survival time, dose: 200.0 mg/kg/injection, schedule: Q01DX005 (ip), vehicle: water) was 104 % of control.
In the case of `CN1C(=O)CCSC1=S`, the T/C (endpoint: mean survival time, dose: 25.0 mg/kg/injection, schedule: Q04DX002 (ip), vehicle: saline with Tween-80) is reported as 94 % of control, the T/C (endpoint: mean survival time, dose: 50.0 mg/kg/injection, schedule: Q04DX002 (ip), vehicle: saline with Tween-80) is reported as 105 % of control and the T/C (endpoint: mean survival time, dose: 100.0 mg/kg/injection, schedule: Q04DX002 (ip), vehicle: saline with Tween-80) is reported as 105 % of control.
`O=CN(/C=C1\CC(OO)NC1=O)Cc1ccccc1` (configuration not stated) was tested, and the T/C (endpoint: mean survival time, dose: 75.0 mg/kg/injection, schedule: Q01DX001 (ip), vehicle: saline) was 102 % of control and the T/C (endpoint: mean survival time, dose: 150.0 mg/kg/injection, schedule: Q01DX001 (ip), vehicle: saline) was 108 % of control.

Source: PubChem BioAssay AID256 (DTP/NCI, 2004)
